Data as given in patent publication US10123993B2, “Cyclic ureas as inhibitors of rock” (BRISTOL-MYERS SQUIBB COMPANY, priority 2015, dated 2018).

Biological target: ROCK2 (Homo sapiens, UniProt O75116)
Assay: ROCK2 kinase inhibition assay (Caliper LABCHIP, FITC peptide substrate)
Type: biochemical
Settings: 5 μM ATP, 1.5 μM peptide substrate; value ranges
Procedure, shortened: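 Dose-response curves gave IC50 from inhibition of peptide phosphorylation, measured by LabChip separation after EDTA stop. Reactions used 1.5 μM FITC-labelled peptide, 5 μM ATP, 20 mM HEPES pH 7.5 with MgCl2, Brij-35, DTT, and under 2% DMSO.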

ROCK2, sequence (O75116 whole entry, species assumed): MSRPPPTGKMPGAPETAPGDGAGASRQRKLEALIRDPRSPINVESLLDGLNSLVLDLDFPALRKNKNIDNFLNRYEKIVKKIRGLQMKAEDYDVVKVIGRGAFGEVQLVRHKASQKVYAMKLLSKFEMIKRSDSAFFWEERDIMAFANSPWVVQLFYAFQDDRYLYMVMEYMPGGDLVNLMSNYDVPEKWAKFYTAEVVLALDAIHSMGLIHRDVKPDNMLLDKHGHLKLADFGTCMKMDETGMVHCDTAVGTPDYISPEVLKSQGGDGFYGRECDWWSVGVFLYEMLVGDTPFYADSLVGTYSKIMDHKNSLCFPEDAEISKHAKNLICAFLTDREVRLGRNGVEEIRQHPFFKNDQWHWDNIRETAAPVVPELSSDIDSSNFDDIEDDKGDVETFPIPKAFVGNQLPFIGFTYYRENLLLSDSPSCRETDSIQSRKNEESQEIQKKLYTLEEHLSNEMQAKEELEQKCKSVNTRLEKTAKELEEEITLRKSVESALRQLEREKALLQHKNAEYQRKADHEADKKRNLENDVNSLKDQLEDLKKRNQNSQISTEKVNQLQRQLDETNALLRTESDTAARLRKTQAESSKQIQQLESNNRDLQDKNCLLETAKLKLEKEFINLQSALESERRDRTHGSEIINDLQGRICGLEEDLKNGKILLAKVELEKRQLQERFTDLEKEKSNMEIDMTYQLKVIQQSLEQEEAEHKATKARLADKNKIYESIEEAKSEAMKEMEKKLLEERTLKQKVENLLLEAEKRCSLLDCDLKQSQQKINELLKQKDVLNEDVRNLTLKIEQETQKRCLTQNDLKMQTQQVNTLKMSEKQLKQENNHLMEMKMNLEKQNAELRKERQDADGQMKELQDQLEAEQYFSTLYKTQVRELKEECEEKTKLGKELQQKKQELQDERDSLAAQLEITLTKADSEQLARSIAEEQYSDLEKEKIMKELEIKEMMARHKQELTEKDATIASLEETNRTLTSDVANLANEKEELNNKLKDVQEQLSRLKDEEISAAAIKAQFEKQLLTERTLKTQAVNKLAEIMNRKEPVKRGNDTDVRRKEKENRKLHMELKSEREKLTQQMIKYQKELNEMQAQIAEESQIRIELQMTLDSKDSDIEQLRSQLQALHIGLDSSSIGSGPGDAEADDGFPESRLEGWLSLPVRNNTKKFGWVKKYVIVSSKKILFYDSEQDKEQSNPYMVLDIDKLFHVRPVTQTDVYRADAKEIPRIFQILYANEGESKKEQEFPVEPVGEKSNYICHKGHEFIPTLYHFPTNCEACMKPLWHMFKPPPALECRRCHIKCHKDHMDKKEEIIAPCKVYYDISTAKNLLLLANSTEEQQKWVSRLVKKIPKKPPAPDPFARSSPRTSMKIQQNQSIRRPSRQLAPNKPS

| SMILES | IC50 |
| --- | --- |
| COc1cccc(CN2C(=O)N(c3ccc(-c4cn[nH]c4)cc3)CC2(C)C)c1F [Example 143, 1-(4-(1H-pyrazol-4-yl)phenyl)-3-(2-fluoro-3-methoxy-benzyl)-4,4-dimethyl-imidazolidin-2-one] | 20.1 to 200 nM |
| CCc1cc(N2CC(C)(C)N(Cc3cc(F)cc(OC)c3)C2=O)ccc1-c1cn[nH]c1 [Example 147, 1-(3-ethyl-4-(1H-pyrazol-4-yl)-phenyl)-3-(3-fluoro-5-methoxy-benzyl)-4,4-dimethyl-imidazolidin-2-one] | 2.1 to 20 nM |
| CCc1cc(N2CC(C)(C)N(Cc3cccc(OC)c3)C2=O)ccc1-c1cn[nH]c1 [Example 148, 1-(3-ethyl-4-(1H-pyrazol-4-yl)phenyl)-3-(3-methoxy-benzyl)-4,4-dimethyl-imidazolidin-2-one] | 2.1 to 20 nM |
| COc1cc(F)cc(CN2C(=O)N(c3ccc(-c4cn[nH]c4)c(C)n3)CC2(C)C)c1 [Example 151, 3-(3-fluoro-5-methoxy-benzyl)-4,4-dimethyl-1-(6-methyl-5-(1H-pyrazol-4-yl)pyridin-2-yl)-imidazolidin-2-one] | 2.1 to 20 nM |
| COc1cc(CN2C(=O)N(c3ccc(-c4cn[nH]c4)c(C)n3)CC2(C)C)ccc1F [Example 152, 3-(4-fluoro-3-methoxy-benzyl)-4,4-dimethyl-1-(6-methyl-5-(1H-pyrazol-4-yl)pyridin-2-yl)-imidazolidin-2-one] | 2.1 to 20 nM |
| COc1cccc(CN2C(=O)N(c3ccc(-c4cn[nH]c4)cc3)C(=O)C2CO)c1 (stereo not drawn) [Example 153, 3-(4-(1H-Pyrazol-4-yl)phenyl)-5-(hydroxymethyl)-1-(3-methoxybenzyl)imidazolidine-2,4-dione] | 200 to 2000 nM |
| CCc1nc(N2CCN(Cc3cccc(OCC4CC4)c3)C2=O)ccc1-c1cn[nH]c1 [Example 169, 1-(3-(cyclo-propyl-methoxy)-benzyl)-3-(6-ethyl-5-(1H-pyrazol-4-yl)pyridin-2-yl)-imidazolidin-2-one] | 20.1 to 200 nM |
| CCc1nc(N2CCN(Cc3ccc(F)c(OC)c3)C2=O)ccc1-c1cn[nH]c1 [Example 170, 1-(6-ethyl-5-(1H-pyrazol-4-yl)pyridin-2-yl)-3-(4-fluoro-3-methoxy-benzyl) imidazolidin-2-one] | 2.1 to 20 nM |
| CCc1nc(-n2ccn(Cc3ccc(F)c(OC)c3)c2=O)ccc1-c1cn[nH]c1 [Example 171, 1-(6-ethyl-5-(1H-pyrazol-4-yl)pyridin-2-yl)-3-(4-fIuoro-3-methoxy-benzyl)-1H-imidazol-2(3H)-one] | 20.1 to 200 nM |
| CCc1nc(-n2ccn(Cc3cc(F)cc(OC)c3)c2=O)ccc1-c1cn[nH]c1 [Example 172, 1-(6-ethyl-5-(1H-pyrazol-4-yl)pyridin-2-yl)-3-(3-fluoro-5-methoxy-benzyl)-1H-imidazol-2(3H)-one] | 2.1 to 20 nM |

More lines, now with the values ahead:

| IC50 | SMILES |
| --- | --- |
| 2.1 to 20 nM | CC1(C)CN(c2ccc(-c3cn[nH]c3)cc2)C(=O)N1Cc1cccc(OCC2CC2)c1 [Example 144, 1-(4-(1H-pyrazol-4-yl)phenyl)-3-(3-(cyclo-propyl-methoxy)benzyl)-4,4-dimethyl-imidazolidin-2-one] |
| < 2 nM | CCc1nc(N2CCN(Cc3cccc(OC)c3)C2=O)ccc1-c1cn[nH]c1 [Example 167, 1-(6-ethyl-5-(1H-pyrazol-4-yl)pyridin-2-yl)-3-(3-methoxy-benzyl) imidazolidin-2-one] |
| < 2 nM | CCc1nc(N2CCN(Cc3cc(F)cc(OC)c3)C2=O)ccc1-c1cn[nH]c1 [Example 168, 1-(6-ethyl-5-(1H-pyrazol-4-yl)pyridin-2-yl)-3-(3-fluoro-5-methoxy-benzyl) imidazolidin-2-one] |
| < 2 nM | CCC1CN(c2ccc(-c3cn[nH]c3)cc2)C(=O)N1Cc1cccc(OC)c1 (stereo not drawn) [Example 175, 1-(4-(1H-pyrazol-4-yl)phenyl)-4-ethyl-3-(3-methoxy-benzyl) imidazolidin-2-one] |
| < 2 nM | CCC1CN(c2ccc(-c3cn[nH]c3)cc2)C(=O)N1Cc1cc(F)cc(OC)c1 (stereo not drawn) [Example 176, 1-(4-(1H-pyrazol-4-yl)phenyl)-4-ethyl-3-(3-fluoro-5-methoxy-benzyl) imidazolidin-2-one] |
